In US20250051283A1, “THERAPEUTIC COMPOUNDS AND METHODS” (priority 2023, published 2025):

Legend:
[1] = tested on: EV-D68 US/MO/14-18947 (clade B1); assay: Broad-spectrum antiviral activity (Table 1), US/MO/14-18947; format: cell-based; settings: Enterovirus D, EVD68
Method: (§1) Cell lines and viruses. Human rhabdomyosarcoma (R.D., ATCC, CCL-136) cells were maintained at 37° C. in a 5% CO2 atmosphere and cultured in Dulbecco's modified Eagle's medium (DMEM) supplemented with 10% fetal bovine serum (FBS) and 1% penicillin-streptomycin antibiotics. The following reagents were obtained through BEI Resources, NIAID, NIH: Human Enterovirus D68, US/MO/14-18949, NR-49130; Enterovirus D68, US/MO/14-18947, NR-49129; Enterovirus D68, US/IL/14-18952, NR-49131; Enterovirus D68, US/KY/14-18953, NR-49132; Enterovirus D68, US/IL/14-18956, NR-49133.
(§2) Antiviral assays. Cells for antiviral assays were seeded and grown overnight at 37° C. in a 5% CO2 atmosphere for ˜90% confluency the next day. For all infections, cells were washed with PBS containing magnesium and calcium and infected with virus diluted in DMEM with 2% FBS and 30 mM MgCl2. Viruses were incubated for at least 1 h at 33° C. in a 5% CO2 atmosphere, followed by the addition of compound as well as 1% penicillin-streptomycin. […] For cytopathic effect (CPE) assays, cells were stained with 66 µg/mL neutral red for 2 h and neutral red uptake was measured at absorbance 540 nm using a Multiskan FC Microplate Photometer (ThermoFisher Scientific). The EC50 and CC50 values were calculated from best-fit dose response curves using GraphPad Prism. […]

[2] = tested on: EV-D68 US/MO/14-18947; assay: CPE assay (neutral red) with EV-D68 US/MO/14-18947 in R.D. cells; format: cell-based, Enterovirus D68; settings: CPE assay, EV-D68 US/MO/14-18947 in R.D. cells
In short: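 R.D. cells infected (DMEM, 2% FBS, 30 mM MgCl2) for ≥1 h at 33° C before compound addition; CPE read by neutral red uptake ([…], 2 h, A540), plaque reduction under 1.2% avicel overlay, stained after 3 days. EC50 and CC50 (uninfected cells) from dose-response curve fits.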

[3] = target: EV-D68 2A^pro (Enterovirus D68, UniProt A0A097BW19); assay: FRET-based enzymatic assay of EV-D68 2Apro inhibition; format: biochemical
Method: Protein expression and purification. EV-D68 2A^pro gene from strain US/KY/14-18953 was ordered from Genscript (Piscataway, NJ) in pET28b(+) vector with E. coli codon optimization. 2A^pro gene was subcloned into pE-SUMOstar vector according to the manufacturers protocol. Plasmid encoding WT-2A^pro was transformed into BL21(DE3) competent E. coli cells, and a single colony was picked and used to inoculate 10 mL of L.B. grown supplemented with 50 μg/mL kanamycin at 37° C. at 250 rpm. The 10 mL inoculant was added to 1 L of L.B. with 50 μg/mL kanamycin and grown to an OD600 of 0.8-1.0, cooled to 18° C., then induced using 0.5 mM IPTG. Induced cultures were incubated at 18° C. for an additional 24 h, then harvested and resuspended in lysis buffer (25 mM Tris (pH 7.5); 750 mM NaCl, 2 mM DTT with 0.5 mg/mL lysozyme, 0.5 mM PMSF and 0.02 mg/mL DNase I) and lysed with alternating sonication and French press cycles. The cell debris were removed by centrifugation at 12,000×g for 45 min […]. The supernatant was incubated with Ni-NTA resin for over 2 h at 4° C. on a rotator. The Ni-NTA resin was thoroughly washed with 50 mM imidazole in wash buffer (50 mM Tris (pH 7.5), 150 mM NaCl, and 2 mM DTT); for the SUMO-tagged protein, the protein was directly eluted with 300 mM imidazole; for the nontagged 2A^pro Ni-NTA resin was treated with SUMO Protease 1 to remove the SUMO tag, then 2A^pro was washed off from the column with 10 mM imidazole in wash buffer. The imidazole was removed via dialysis or 10 K molecular weight cut-off centrifugal concentrator spin column. The purity of the protein was confirmed with SDS-PAGE. The protein concentration was determined by classic BCA assay using bovine serum albumin as a standard. EV-D68 3C^pro in pET28b(+) vector was expressed as previously described^10.
Peptide synthesis. The FRET substrate of EV-D68 2A^pro, Dabcyl-KIRIVNT/GPGFGGE-Edans, was synthesized using the Fmoc solid phase synthesis strategy.
Enzymatic assays. The reaction buffer contains 50 mM Tris (pH7.0), 150 mM NaCl, 10% Glycerol, and 2 mM DTT, and the reaction was carried out at 30° C. in Cytation 5 imaging reader (Fisher Scientific) with EX360/40-EM460/40 filter. Reactions were monitored every 90 sec. […] The reaction was initiated by adding 20 μM of FRET substrate, and the reaction was monitored for 2 hours and initial velocity was calculated for the first 30 minutes via linear regression.

[4] = Cytotoxicity by neutral red uptake in R.D. cells, no viral infection; format: cell-based, Human; settings: human, R.D. (rhabdomyosarcoma, ATCC CCL-136) cells, uninfected
Method: as §1
Antiviral assays. Cells for antiviral assays were seeded and grown overnight at 37° C. in a 5% CO2 atmosphere for ˜90% confluency the next day. For all infections, cells were washed with PBS containing magnesium and calcium and infected with virus diluted in DMEM with 2% FBS and 30 mM MgCl2. Viruses were incubated for at least 1 h at 33° C. in a 5% CO2 atmosphere, followed by the addition of compound as well as 1% penicillin-streptomycin. For CC50 measurements, the experiment was performed similarly but excluded viral infection. For cytopathic effect (CPE) assays, cells were stained with 66 µg/mL neutral red for 2 h and neutral red uptake was measured at absorbance 540 nm using a Multiskan FC Microplate Photometer (ThermoFisher Scientific). The EC50 and CC50 values were calculated from best-fit dose response curves using GraphPad Prism. For plaque reduction assays, an 1.2% avicel microcrystalline cellulose (FMC BioPolymer, Philadelphia, PA) overlay was used and cells were stained after 3 days as previously described^26.

[5] = tested on: five strains of EV-D68 (B1, B2, and D clades); assay: Broad-spectrum antiviral activity, summary over five EV-D68 strains; format: cell-based, Enterovirus D68
Method: as §1, §2

[6] = tested on: EV-D68 US/IL/14-18952 (clade B2); assay: Broad-spectrum antiviral activity (Table 1), US/IL/14-18952; format: cell-based, Enterovirus D68; settings: Enterovirus D, EVD68; EV-D68 US/IL/14-18952 (clade B2); read-out: EC50
Method: as §1, §2

Chain of EV-D68 2A^pro (A0A097BW19 entry or part of it): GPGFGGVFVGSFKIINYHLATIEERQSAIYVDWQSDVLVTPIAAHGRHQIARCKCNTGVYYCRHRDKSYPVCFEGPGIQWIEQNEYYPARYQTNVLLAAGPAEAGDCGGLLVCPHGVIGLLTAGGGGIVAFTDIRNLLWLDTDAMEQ

CC(C)(C)C(NC(=O)CC12CC3CC(CC(C3)C1)C2)C(=O)N1CC2CCCC2C1C(=O)NC(C(=O)C(=O)NC1CC1)C1CCCCC1 [Jun11762, (1S,3aR,6aS)-2-((S)-2-(2-((3S,5S,7S)-adamantan-1-yl)acetamido)-3,3-dimethylbutanoyl)-N—((S)-1-cyclohexyl-3-(cyclopropylamino)-2,3-dioxopropyl)octahydrocyclopenta[c]pyrrole-1-carboxamide]
EC50 [1]: 43 ± 3.3 nM | antiviral activity, in words, relative to the named comparator [2]: comparable enzymatic inhibition and antiviral activity as Jun8861 | enzymatic inhibition, in words, relative to the named comparator [3]: comparable enzymatic inhibition and antiviral activity as Jun8861 | CC50 [4]: > 150000 nM | EC50 ([5]; Enterovirus D, EVD68, read-out: EC50 values over all five strains): 43 to 269 nM | fold improvement of EC50 compared to telaprevir ([5]; five EV-D68 strains, versus telaprevir): 3.1-4.6 fold | EC50 [6]: 269 ± 21.9 nM
